Results: patent US20100167397A1, “ENDOCRINE CELL LINES AND METHOD OF USING THE SAME” (KYOWA HAKKO KOGYO CO., LTD., priority 2002, published 2010)
Numbering of substitutions follows the chain as printed. Names may count otherwise.

B1: G2A (protein, UniProt Q9UNW8 1-380, looked up)
Probable G-protein coupled …: MCPMLLKNGYNGNATPVTTTAPWASLGLSAKTCNNVSFEESRIVLVVVYSAVCTLGVPANCLTAWLALLQVLQGNVLAVYLLCLALCELLYTGTLPLWVIYIRNQHRWTLGLLACKVTAYIFFCNIYVSILFLCCISCDRFVAVVYALESRGRRRRRTAILISACIFILVGIVHYPVFQTEDKETCFDMLQMDSRIAGYYYARFTVGFAIPLSIIAFTNHRIFRSIKQSMGLSAAQKAKVKHSAIAVVVIFLVCFAPYHLVLLVKAAAFSYYRGDRNAMCGLEERLYTASVVFLCLSTVNGVADPIIYVLATDHSRQEVSRIHKGWKEWSMKTDVTRLTHSRDTEELQSPVALADHYTFSRPVHPPGSPCPAKRLIEESC
B2: GPR35D113A: GPR35 mutant GPCR, 113th aspartic acid substituted with alanine; SEQ ID NO: 191 (protein)
chain: MNGTYNTCGSSDLTWPPAIKLGFYAYLGVLLVLGLLLNSLALWVFCCRMQQWTETRIYMTNLAVADLCLLCTLPFVLHSLRDTSDTPLCQLSQGIYLTNRYMSISLVTAIAVARYVAVRHPLRARGLRSPRQAAAVCAVLWVLVIGSLVARWLLGIQEGGFCFRSTRHNFNSMRFPLLGFYLPLAVVVFCSLKVVTALAQRPPTDVGQAEATRKAARMVWANLLVFVVCFLPLHVGLTVRLAVGWNACALLETIRRALYITSKLSDANCCLDAICYYYMAKEFQEASALAVAPRAKAHKSQDSLCVTLA
modifications: GPR35D113A
B3: RE2D124A: RE2 mutant GPCR, 124th aspartic acid substituted with alanine; SEQ ID NO: 190 (protein)
chain: MSLNSSLSCRKELSNLTEEEGGEGGVIITQFIAIIVITIFVCLGNLVIVVTLYKKSYLLTLSNKFVFSLTLSNFLLSVLVLPFVVTSSIRREWIFGVVWCNFSALLYLLISSASMLTLGVIAIARYYAVLYPMVYPMKITGNRAVMALVYIWLHSLIGCLPPLFGWSSVEFDEFKWMCVAAWHREPGYTAFWQIWCALFPFLVMLVCYGFIFRVARVKARKVHCGTVVIVEEDAQRTGRKNSSTSTSSSGSRRNAFQGVVYSANQCKALITILVVLGAFMVTWGPYMVVIASEALWGKSSVSPSLETWATWLSFASAVCHPLIYGLWNKTVRKELLGMCFGDRYYREPFVQRQRTSRLFSISNRITDLGLSPHLTALMAGGQPLGHSSSTGDTGFSCSQDSGNLRAL
modifications: RE2D124A
B4: GPCR25D111A: GPCR25 mutant GPCR, 111th aspartic acid substituted with alanine; SEQ ID NO: 192 (protein)
chain: MNSTCIEEQHDLDHYLFPIVYIFVIIVSIPANIGSLCVSFLQPKKESELGIYLFSLSLSDLLYALTLPLWIDYTWNKDNWTFSPALCKGSAFLMYMKFYSSTAFLTCIAVARYLAVVYPLKFFFLRTRRIALMVSLSIWILETIFNAVMLWEDETVVEYCDAEKSNFTLCYDKYPLEKWQINLNLFRTCTGYAIPLVTILICNRKVYQAVRHNKATENKEKKRIIKLLVSITVTFVLCFTPFHVMLLIRCILEHAVNFEDHSNSGKRTYTMYRITVALTSLNCVADPILYCFVTETGRYDMWNILKFCTGRCNTSQRQRKRILSVSTKDTMELEVLE
modifications: GPCR25D111A
B5: GPR43R217P: mutant where the 217th arginine of GPR43 polypeptide was substituted with proline; SEQ ID NO: 197 (protein)
chain: MLPDWKSSLILMAYIIIFLTGLPANLLALRAFVGRIRQPQPAPVHILLLSLTLADLLLLLLLPFKIIEAASNFRWYLPKVVCALTSFGFYSSIYCSTWLLAGISIERYLGVAFPVQYKLSRRPLYGVIAALVAWVMSFGHCTIVIIVQYLNTTEQVRSGNEITCYENFTDNQLDVVLPVRLELCLVLFFIPMAVTIFCYWRFVWIMLSQPLVGAQRPRRAVGLAVVTLLNFLVCFGPYNVSHLVGYHQRKSPWWRSIAVVFSSLNASLDPLLFYFSSSVVRRAFGRGLQVLRNQGSSLLGRRGKDTAEGTNEDRGVGQGEGMPSSDFTTE
modifications: GPR43R217P
B6: GPR43R217PE106D: GPR43R217P mutant where the 106th glutamic acid was substituted with aspartic acid; SEQ ID NO: 198 (protein)
chain: B5 chain with E106D
modifications: GPR43R217P/E106D
B7: PGMO334E135F: mutant where the 135th glutamic acid of the PGMO334 polypeptide was substituted with phenylalanine; SEQ ID NO: 193 (protein)
chain: MSPECARAAGDAPLRSLEQANRTRFPFFSDVKGDHRLVLAAVETTVLVLIFAVSLLGNVCALVLVARRRRRGATACLVLNLFCADLLFISAIPLVLAVRWTEAWLLGPVACHLLFYVMTLSGSVTILTLAAVSLFRMVCIVHLQRGVRGPGRRARAVLLALIWGYSAVAALPLCVFFRVVPQRLPGADQEISICTLIWPTIPGEISWDVSFVTLNFLVPGLVIVISYSKILQITKASRKRLTVSLAYSESHQIRVSQQDFRLFRTLFLLMVSFFIMWSPIIITILLILIQNFKQDLVIWPSLFFWVVAFTFANSALNPILYNMTLCRNEWKKIFCCFWFPEKGAILTDTSVKRNDLSIISG
modifications: PGMO334E135F
B8: PGMO334E135A: mutant where the 135th glutamic acid of PGMO334 polypeptide was substituted with alanine; SEQ ID NO: 195 (protein)
chain: B7 chain with F135A
modifications: PGMO334E135A
B9: PGMO334D259S: mutant where the 259th aspartic acid of PGMO334 polypeptide was substituted with serine; SEQ ID NO: 196 (protein)
chain: B7 chain with F135E, D259S
modifications: PGMO334D259S
B10: PGMO334E135Q: mutant where the 135th glutamic acid of PGMO334 polypeptide was substituted with glutamine; SEQ ID NO: 194 (protein)
chain: B7 chain with F135Q
modifications: PGMO334E135Q

What follows are molecules tested on CRE reporter in GBCRC6 (assay: Constitutive activity of GPCR, Method 1 (GBCRC6 host, Renilla reniformis luciferase, induction ratio with 17β-estradiol)). Conditions: Method 1; GBCRC6 host; activity with 17β-estradiol divided by activity without; control plasmid about 1.
Type: cell-based, human
Experimental: After the incubation, coelenterazine h (Molecular Proves) (final concentration 250 nmol/L) was added to measure the activity of Renilla reniformis luciferase. For the activity measurement, a Wallac 1420 ARVOsx Multilabel Counter (manufactured by Wallac Berthold Japan) or a VIM camera (Argus-50/2D Luminometer/MP; manufactured by Hamamatsu Photonics) was used.
In each method, the induction ratio of the cells transfected with the control plasmid was about 1. It is judged that the higher the induction ratio of the cells to which a GPCR expression plasmid was transfected, the stronger the constitutive activity of the GPCR.

Molecule	Constitutive Activity (induction ratio)
OGR1S221N	12.7-fold
GPR 88	15-fold
GPCR 25	20-fold
OGR1	3.6-fold
GPR 92	11-fold
GPR 30	27-fold
GPR 62	12-fold
GPR 6	63-fold
GPR 35	25-fold
GPR 4	40-fold
GPR 61	12-fold
B1	20-fold

Same assay, conditions: method 1 of (2) of Example 22; induction ratio of reporter activity with 17β-estradiol

Molecule	Constitutive Activity
OGR1S221N/D118A: OGR1S221N mutant GPCR with 118th aspartic acid substituted with alanine; SEQ ID NO: 189	56-fold
B2	97-fold
B3	32-fold
B4	35-fold

Same assay, conditions: method of (2) of Example 22 utilizing GBCRC6 as a host

Molecule	induction ratio (constitutive activity)
B5	about 2 fold
B6	about 17 fold
B7	about 3 fold
B8	about 14 fold
B9	about 5 fold
B10	about 3 fold
